Test system: adult patients with essential tremor
Assay: Example 16: video-reviewed TETRAS performance subscale and upper limb score; on TETRAS Performance Subscale Total Score by Video Review, Change from Baseline, Mean (SD): test concentration or dose not given here; on TETRAS Performance Subscale Total Score by Video Review, Change from Baseline, Median: test concentration or dose not given here; on TETRAS Performance Subscale Total Score by Video Review, Mean (SD): test concentration or dose not given here; on TETRAS Performance Subscale Total Score by Video Review, Median: test concentration or dose not given here
Assay type: in vivo, human
Text: Video-reviewed TETRAS Analyses Video reviewed TETRAS assessments were generally consistent with those conducted at the clinic. Video reviewed TETRAS performance subscale total scores are summarized for Part A, the open-label titration phase of Part B, and the randomized withdrawal phase of Part B in Table 42, Table 43, and Table 44.
Video reviewed upper limb score values were generally consistent with those conducted at the clinic and are summarized for Part A, the open-label titration phase of Part B, and the randomized withdrawal phase of Part B in Table 45, Table 46, and Table 47, respectively.

[1] = Day 1, 6 hours Post - dose, Part A (N = 7)
[2] = Day 1, 6 hours Post - dose, Part B Open-Label Titration Phase (N = 17)
[3] = Day 1, 6 hours Post - dose, Part B, Formula (I) arm (N = 6)
[4] = Day 7, Part B Open-Label Titration Phase (N = 17)
[5] = Day 7, Part B, Formula (I) arm (N = 6)
[6] = Day 21, Part B Open-Label Titration Phase (N = 17)

CC(C)(C)NC(=O)CN1CCC(CNC(=O)c2cc(F)cc(Cl)c2)CC1 [compound of formula (I), N-((1-(2-(tert-butylamino)-2-oxoethyl)piperidin-4-yl)methyl)-3-chloro-5-fluorobenzamide]
TETRAS Performance Subscale Total Score by Video Review, Change from Baseline, Mean (SD) [1]: 0.29 (1.753) | TETRAS Performance Subscale Total Score by Video Review, Change from Baseline, Median [1]: 0.50 | TETRAS Performance Subscale Total Score by Video Review, Mean (SD) [1]: 24.00 (5.148) | TETRAS Performance Subscale Total Score by Video Review, Median [1]: 23.00 | TETRAS Performance Subscale Total Score by Video Review, Percentage Change from Baseline in Tremor Amplitude, Mean (SD) [1]: 1.98 (11.724) % | TETRAS Performance Subscale Total Score by Video Review, Percentage Change from Baseline in Tremor Amplitude, Median [1]: 3.53% | TETRAS Upper Limb Score by Video Review, Change from Baseline, Mean (SD) [1]: 0.21 (0.859) | TETRAS Upper Limb Score by Video Review, Change from Baseline, Median [1]: 0.00 | TETRAS Upper Limb Score by Video Review, Mean (SD) [1]: 10.93 (2.440) | TETRAS Upper Limb Score by Video Review, Median [1]: 10.00 | TETRAS Upper Limb Score by Video Review, Percentage Change from Baseline in Tremor Amplitude, Mean (SD) [1]: 3.57 (14.794) % | TETRAS Upper Limb Score by Video Review, Percentage Change from Baseline in Tremor Amplitude, Median [1]: 0.00% | TETRAS Performance Subscale Total Score by Video Review, Change from Baseline, Mean (SD) [2]: −0.74 (2.544) | TETRAS Performance Subscale Total Score by Video Review, Change from Baseline, Median [2]: −0.50 | TETRAS Performance Subscale Total Score by Video Review, Mean (SD) [2]: 20.79 (6.715) | TETRAS Performance Subscale Total Score by Video Review, Median [2]: 20.50 | TETRAS Performance Subscale Total Score by Video Review, Percentage Change from Baseline in Tremor Amplitude, Mean (SD) [2]: −4.49 (15.951) % | TETRAS Performance Subscale Total Score by Video Review, Percentage Change from Baseline in Tremor Amplitude, Median [2]: −3.53% | TETRAS Upper Limb Score by Video Review, Change from Baseline, Mean (SD) [2]: −0.29 (1.238) | TETRAS Upper Limb Score by Video Review, Change from Baseline, Median [2]: 0.00 | TETRAS Upper Limb Score by Video Review, Mean (SD) [2]: 9.47 (2.809) | TETRAS Upper Limb Score by Video Review, Median [2]: 9.50 | TETRAS Upper Limb Score by Video Review, Percentage Change from Baseline in Tremor Amplitude, Mean (SD) [2]: −4.23 (19.775) % | TETRAS Upper Limb Score by Video Review, Percentage Change from Baseline in Tremor Amplitude, Median [2]: 0.00% | TETRAS Performance Subscale Total Score by Video Review, Change from Baseline, Mean (SD) [3]: −0.42 (2.973) | TETRAS Performance Subscale Total Score by Video Review, Change from Baseline, Median [3]: −0.50 | TETRAS Performance Subscale Total Score by Video Review, Mean (SD) [3]: 21.92 (4.398) | TETRAS Performance Subscale Total Score by Video Review, Median [3]: 21.75 | TETRAS Performance Subscale Total Score by Video Review, Percentage Change from Baseline in Tremor Amplitude, Mean (SD) [3]: −2.29 (18.383) % | TETRAS Performance Subscale Total Score by Video Review, Percentage Change from Baseline in Tremor Amplitude, Median [3]: −3.47% | TETRAS Upper Limb Score by Video Review, Change from Baseline, Mean (SD) [3]: 0.33 (1.125) | TETRAS Upper Limb Score by Video Review, Change from Baseline, Median [3]: 0.75 | TETRAS Upper Limb Score by Video Review, Mean (SD) [3]: 10.25 (1.666) | TETRAS Upper Limb Score by Video Review, Median [3]: 9.50 | TETRAS Upper Limb Score by Video Review, Percentage Change from Baseline in Tremor Amplitude, Mean (SD) [3]: 5.82 (19.104) % | TETRAS Upper Limb Score by Video Review, Percentage Change from Baseline in Tremor Amplitude, Median [3]: 13.30% | TETRAS Performance Subscale Total Score by Video Review, Change from Baseline, Mean (SD) (Day 7, Part A (N = 7)): −1.25 (3.094) | TETRAS Performance Subscale Total Score by Video Review, Change from Baseline, Median (Day 7, Part A (N = 7)): −1.25 | TETRAS Performance Subscale Total Score by Video Review, Mean (SD) (Day 7, Part A (N = 7)): 21.00 (2.449) | TETRAS Performance Subscale Total Score by Video Review, Median (Day 7, Part A (N = 7)): 21.75 | TETRAS Performance Subscale Total Score by Video Review, Percentage Change from Baseline in Tremor Amplitude, Mean (SD) (Day 7, Part A (N = 7)): −7.45 (19.377) % | TETRAS Performance Subscale Total Score by Video Review, Percentage Change from Baseline in Tremor Amplitude, Median (Day 7, Part A (N = 7)): −8.23% | TETRAS Upper Limb Score by Video Review, Change from Baseline, Mean (SD) (Day 7, Part A (N = 7)): −0.25 (1.332) | TETRAS Upper Limb Score by Video Review, Change from Baseline, Median (Day 7, Part A (N = 7)): 0.00 | TETRAS Upper Limb Score by Video Review, Mean (SD) (Day 7, Part A (N = 7)): 9.83 (0.816) | TETRAS Upper Limb Score by Video Review, Median (Day 7, Part A (N = 7)): 10.00 | TETRAS Upper Limb Score by Video Review, Percentage Change from Baseline in Tremor Amplitude, Mean (SD) (Day 7, Part A (N = 7)): −3.79 (22.054) % | TETRAS Upper Limb Score by Video Review, Percentage Change from Baseline in Tremor Amplitude, Median (Day 7, Part A (N = 7)): 0.00% | TETRAS Performance Subscale Total Score by Video Review, Change from Baseline, Mean (SD) [4]: −2.28 (5.019) | TETRAS Performance Subscale Total Score by Video Review, Change from Baseline, Median [4]: −3.50 | TETRAS Performance Subscale Total Score by Video Review, Mean (SD) [4]: 20.17 (6.595) | TETRAS Performance Subscale Total Score by Video Review, Median [4]: 20.50 | TETRAS Performance Subscale Total Score by Video Review, Percentage Change from Baseline in Tremor Amplitude, Mean (SD) [4]: −13.83 (27.204) % | TETRAS Performance Subscale Total Score by Video Review, Percentage Change from Baseline in Tremor Amplitude, Median [4]: −22.26% | TETRAS Upper Limb Score by Video Review, Change from Baseline, Mean (SD) [4]: −1.15 (1.916) | TETRAS Upper Limb Score by Video Review, Change from Baseline, Median [4]: −1.50 | TETRAS Upper Limb Score by Video Review, Mean (SD) [4]: 8.75 (2.880) | TETRAS Upper Limb Score by Video Review, Median [4]: 8.50 | TETRAS Upper Limb Score by Video Review, Percentage Change from Baseline in Tremor Amplitude, Mean (SD) [4]: −17.86 (27.226) % | TETRAS Upper Limb Score by Video Review, Percentage Change from Baseline in Tremor Amplitude, Median [4]: −25.01% | TETRAS Performance Subscale Total Score by Video Review, Change from Baseline, Mean (SD) [5]: −2.00 (2.291) | TETRAS Performance Subscale Total Score by Video Review, Change from Baseline, Median [5]: −1.50 | TETRAS Performance Subscale Total Score by Video Review, Mean (SD) [5]: 20.33 (2.754) | TETRAS Performance Subscale Total Score by Video Review, Median [5]: 20.50 | TETRAS Performance Subscale Total Score by Video Review, Percentage Change from Baseline in Tremor Amplitude, Mean (SD) [5]: −12.63 (13.986) % | TETRAS Performance Subscale Total Score by Video Review, Percentage Change from Baseline in Tremor Amplitude, Median [5]: −10.23% | TETRAS Upper Limb Score by Video Review, Change from Baseline, Mean (SD) [5]: −0.88 (1.031) | TETRAS Upper Limb Score by Video Review, Change from Baseline, Median [5]: −1.00 | TETRAS Upper Limb Score by Video Review, Mean (SD) [5]: 9.00 (0.913) | TETRAS Upper Limb Score by Video Review, Median [5]: 9.00 | TETRAS Upper Limb Score by Video Review, Percentage Change from Baseline in Tremor Amplitude, Mean (SD) [5]: −14.41 (17.112) % | TETRAS Upper Limb Score by Video Review, Percentage Change from Baseline in Tremor Amplitude, Median [5]: −17.46% | TETRAS Performance Subscale Total Score by Video Review, Change from Baseline, Mean (SD) (Day 14, Part A (N = 7)): −2.92 (2.654) | TETRAS Performance Subscale Total Score by Video Review, Change from Baseline, Median (Day 14, Part A (N = 7)): −3.00 | TETRAS Performance Subscale Total Score by Video Review, Mean (SD) (Day 14, Part A (N = 7)): 19.33 (2.380) | TETRAS Performance Subscale Total Score by Video Review, Median (Day 14, Part A (N = 7)): 19.00 | TETRAS Performance Subscale Total Score by Video Review, Percentage Change from Baseline in Tremor Amplitude, Mean (SD) (Day 14, Part A (N = 7)): −17.69 (15.649) % | TETRAS Performance Subscale Total Score by Video Review, Percentage Change from Baseline in Tremor Amplitude, Median (Day 14, Part A (N = 7)): −19.21% | TETRAS Upper Limb Score by Video Review, Change from Baseline, Mean (SD) (Day 14, Part A (N = 7)): −1.33 (1.080) | TETRAS Upper Limb Score by Video Review, Change from Baseline, Median (Day 14, Part A (N = 7)): −1.50 | TETRAS Upper Limb Score by Video Review, Mean (SD) (Day 14, Part A (N = 7)): 8.75 (1.294) | TETRAS Upper Limb Score by Video Review, Median (Day 14, Part A (N = 7)): 9.25 | TETRAS Upper Limb Score by Video Review, Percentage Change from Baseline in Tremor Amplitude, Mean (SD) (Day 14, Part A (N = 7)): −21.27 (17.102) % | TETRAS Upper Limb Score by Video Review, Percentage Change from Baseline in Tremor Amplitude, Median (Day 14, Part A (N = 7)): −24.67% | TETRAS Performance Subscale Total Score by Video Review, Change from Baseline, Mean (SD) (Day 21, Part A (N = 7)): −1.00 (3.146) | TETRAS Performance Subscale Total Score by Video Review, Change from Baseline, Median (Day 21, Part A (N = 7)): −0.75 | TETRAS Performance Subscale Total Score by Video Review, Mean (SD) (Day 21, Part A (N = 7)): 21.25 (2.734) | TETRAS Performance Subscale Total Score by Video Review, Median (Day 21, Part A (N = 7)): 21.75 | TETRAS Performance Subscale Total Score by Video Review, Percentage Change from Baseline in Tremor Amplitude, Mean (SD) (Day 21, Part A (N = 7)): −5.84 (20.134) % | TETRAS Performance Subscale Total Score by Video Review, Percentage Change from Baseline in Tremor Amplitude, Median (Day 21, Part A (N = 7)): −4.59% | TETRAS Upper Limb Score by Video Review, Change from Baseline, Mean (SD) (Day 21, Part A (N = 7)): −0.67 (1.602) | TETRAS Upper Limb Score by Video Review, Change from Baseline, Median (Day 21, Part A (N = 7)): −0.25 | TETRAS Upper Limb Score by Video Review, Mean (SD) (Day 21, Part A (N = 7)): 9.42 (1.320) | TETRAS Upper Limb Score by Video Review, Median (Day 21, Part A (N = 7)): 9.50 | TETRAS Upper Limb Score by Video Review, Percentage Change from Baseline in Tremor Amplitude, Mean (SD) (Day 21, Part A (N = 7)): −9.56 (25.141) % | TETRAS Upper Limb Score by Video Review, Percentage Change from Baseline in Tremor Amplitude, Median (Day 21, Part A (N = 7)): −4.16% | TETRAS Performance Subscale Total Score by Video Review, Change from Baseline, Mean (SD) [6]: −0.96 (3.122) | TETRAS Performance Subscale Total Score by Video Review, Change from Baseline, Median [6]: −1.00 | TETRAS Performance Subscale Total Score by Video Review, Mean (SD) [6]: 21.67 (5.809) | TETRAS Performance Subscale Total Score by Video Review, Median [6]: 21.25 | TETRAS Performance Subscale Total Score by Video Review, Percentage Change from Baseline in Tremor Amplitude, Mean (SD) [6]: −5.66 (18.983) % | TETRAS Performance Subscale Total Score by Video Review, Percentage Change from Baseline in Tremor Amplitude, Median [6]: −6.88% | TETRAS Upper Limb Score by Video Review, Change from Baseline, Mean (SD) [6]: −0.67 (1.628) | TETRAS Upper Limb Score by Video Review, Change from Baseline, Median [6]: −0.50
